Structures can show the parent of a compound that is named as a salt.

Drawing on patent US10329295B2, “Pyrrolotriazine inhibitors of IRAK4 activity” (MERCK SHARP & DOHME CORP., priority 2015, dated 2019), this text covers IC50 for 25 compounds.

Chain of GST tagged IRAK4 (Q9NWZ3 whole entry): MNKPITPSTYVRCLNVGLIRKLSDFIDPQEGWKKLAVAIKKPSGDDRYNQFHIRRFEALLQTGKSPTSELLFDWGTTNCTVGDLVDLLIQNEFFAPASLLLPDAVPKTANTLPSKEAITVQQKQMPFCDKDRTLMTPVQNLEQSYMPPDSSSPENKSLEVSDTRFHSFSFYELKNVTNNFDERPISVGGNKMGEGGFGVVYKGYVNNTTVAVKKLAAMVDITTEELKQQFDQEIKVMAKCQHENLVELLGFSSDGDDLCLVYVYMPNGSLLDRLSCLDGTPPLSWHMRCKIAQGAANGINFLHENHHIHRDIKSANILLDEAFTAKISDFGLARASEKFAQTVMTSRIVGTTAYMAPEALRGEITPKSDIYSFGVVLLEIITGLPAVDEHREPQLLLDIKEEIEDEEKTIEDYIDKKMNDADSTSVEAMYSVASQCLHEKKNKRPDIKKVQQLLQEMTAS

The experiment addresses GST tagged IRAK4 (Homo sapiens (Human), UniProt Q9NWZ3). The experiment in a line: IRAK4 Kinase Assay (IMAP fluorescence polarization). Type of experiment: biochemical. Conditions: 0.5 nM GST tagged IRAK4, 100 μM ATP, 30 minutes at 25° C. The procedure:
The kinase activity of IRAK4 is determined by its ability to catalyze the phosphorylation of a fluorescent polypeptide substrate. The extent of phosphorylation is measured using the IMAP technology (Molecular Devices) where the phosphorylated fluorescent substrate binds to the large M(III)-based nanoparticles which reduces the rotational speed of the substrate and thus increases its fluorescent polarization (FP).
20 μL reaction mixture contains 10 mM TriHCl, pH 7.2, 0.5 nM GST tagged IRAK4 (SignalChem), 100 nM fluorescent peptide substrate (RP7030, Molecular Devices), 100 μM ATP, 1 mM DDT, 1 mM MgCl2, and 0.01% Tween 20. The reaction is initiated by the addition of ATP. After incubation for 30 minutes at 25° C., 60 μL of Progressive IMAP Reagent (Molecular Devices) is added to stop the reaction. Change in RP7030's FP is determined by a FP reader (Analyst HT, LJL BioSystems).
The compound `Cn1cc(NC(=O)c2ccc3cnc(N[C@H]4CC(F)(F)CC[C@H]4N)nn23)c(C(F)(F)F)n1` (single isomer, unassigned) [Example 127, 2-{[(1S,2R)- or (1R,2S)-2-amino-5,5-difluorocyclohexyl]amino}-N-[1-methyl-3-(trifluoromethyl)-1H-pyrazol-4-yl]pyrrolo[2,1-f][1,2,4]triazine-7-carboxamide trifluoroacetate] had an IC50 of 17 nM. In turn, `Cn1cc(NC(=O)c2ccc3cnc(N[C@H]4CCC(F)(F)C[C@H]4N)nn23)c(C(F)(F)F)n1` (single isomer, unassigned) [Example 128, 2-{[(1S,2R)- or (1R,2S)-2-amino-4,4-difluorocyclohexyl]amino}-N-[1-methyl-3-(trifluoromethyl)-1H-pyrazol-4-yl]pyrrolo[2,1-f][1,2,4]triazine-7-carboxamide trifluoroacetate] returned an IC50 of 46 nM.

With `Cn1cc(NC(=O)c2ccc3cnc(N[C@H]4CCC(F)(F)C[C@H]4N)nn23)c(C(F)F)n1` (single isomer, unassigned) [Example 129, 2-{[(1S,2R)- or (1R,2S)-2-amino-4,4-difluorocyclohexyl]amino}-N-[3-(difluoromethyl)-1-methyl-1H-pyrazol-4-yl]pyrrolo[2,1-f][1,2,4]triazine-7-carboxamide], the half-maximal inhibitory concentration (IC50) came out at 3650 nM. `Cn1cc(NC(=O)c2ccc3cnc(N[C@H]4CC(F)(F)CC[C@H]4N)nn23)c(C(F)F)n1` (single isomer, unassigned) [Example 130, 2-{[(1S,2R)- or (1R,2S)-2-amino-5,5-difluorocyclohexyl]amino}-N-[3-(difluoromethyl)-1-methyl-1H-pyrazol-4-yl]pyrrolo[2,1-f][1,2,4]triazine-7-carboxamide] registered an IC50 of 668 nM.

Compound `Cn1cc(NC(=O)c2ccc3cnc(N[C@@H]4CC(F)(F)CC[C@@H]4N)nn23)c(C(F)(F)F)n1` (single isomer, unassigned) [Example 131, 2-{[(1S,2R)- or (1R,2S)-2-amino-5,5-difluorocyclohexyl]amino}-N-[1-methyl-3-(trifluoromethyl)-1H-pyrazol-4-yl]pyrrolo[2,1-f][1,2,4]triazine-7-carboxamide trifluoroacetate] yielded an IC50 of 4 nM. With `Cn1cc(NC(=O)c2ccc3cnc(N[C@@H]4CCC(F)(F)C[C@@H]4N)nn23)c(C(F)(F)F)n1` (single isomer, unassigned) [Example 132, 2-{[(1S,2R)- or (1R,2S)-2-amino-4,4-difluorocyclohexyl]amino}-N-[1-methyl-3-(trifluoromethyl)-1H-pyrazol-4-yl]pyrrolo[2,1-f][1,2,4]triazine-7-carboxamide trifluoroacetate] the figure was 655 nM; with `Cn1cc(NC(=O)c2ccc3cnc(N4C[C@H]5CNC[C@@H]4C5)nn23)c(C#N)n1` (single isomer, unassigned) [Example 134, N-(3-cyano-1-methyl-1H-pyrazol-4-yl)-2-[(1R,5S)- or (1S,5R)-3,6-diazabicyclo[3.2.1]oct-6-yl]pyrrolo[2,1-f][1,2,4]triazine-7-carboxamide], 174 nM; with `Cn1cc(NC(=O)c2ccc3cnc(N4C[C@@H]5CNC[C@H]4C5)nn23)c(C#N)n1` (single isomer, unassigned) [Example 135, N-(3-cyano-1-methyl-1H-pyrazol-4-yl)-2-[(1R,5S)- or (1S,5R)-3,6-diazabicyclo[3.2.1]oct-6-yl]pyrrolo[2,1-f][1,2,4]triazine-7-carboxamide], 867 nM. `Cn1cc(NC(=O)c2ccc3cnc(N[C@@H]4CCC(F)(F)C[C@@H]4N)nn23)c(C(F)F)n1` (single isomer, unassigned) [Example 139, 2-{[(1S,2R)- or (1R,2S)-2-amino-4,4-difluorocyclohexyl]amino}-N-[3-(difluoromethyl)-1-methyl-1H-pyrazol-4-yl]pyrrolo[2,1-f][1,2,4]triazine-7-carboxamide] registered an IC50 of 3 nM. For `Cn1cc(NC(=O)c2ccc3cnc(N[C@@H]4CC(F)(F)CC[C@@H]4N)nn23)c(C(F)F)n1` (single isomer, unassigned) [Example 140, 2-{[(1S,2R)- or (1R,2S)-2-amino-5,5-difluorocyclohexyl]amino}-N-[3-(difluoromethyl)-1-methyl-1H-pyrazol-4-yl]pyrrolo[2,1-f][1,2,4]triazine-7-carboxamide], the IC50 came out at 3 nM. With `Cn1cc(NC(=O)c2ccc3cnc(N4C[C@@H]5CC[C@H]4CN5)nn23)c(C(F)(F)F)n1` (single isomer, unassigned) [Example 170, 2-[(1S,4S)- or (1R,4R)-2,5-diazabicyclo[2.2.2]oct-2-yl]-N-[1-methyl-3-(trifluoromethyl)-1H-pyrazol-4-yl]pyrrolo[2,1-f][1,2,4]triazine-7-carboxamide] the figure was 35 nM; with `Cn1cc(NC(=O)c2ccc3cnc(N4C[C@H]5CC[C@@H]4CN5)nn23)c(C(F)(F)F)n1` (single isomer, unassigned) [Example 171, 2-[(1S,4S)- or (1R,4R)-2,5-diazabicyclo[2.2.2]oct-2-yl]-N-[1-methyl-3-(trifluoromethyl)-1H-pyrazol-4-yl]pyrrolo[2,1-f][1,2,4]triazine-7-carboxamide], 64 nM.

The compound `Cn1cc(NC(=O)c2ccc3cnc(N[C@@H]4CCCC[C@@H]4N)nn23)c(C(F)F)n1` [Example 1, 2-{[(1R,2S)-2-Aminocyclohexyl]amino}-N-[3-(difluoromethyl)-1-methyl-1H-pyrazol-4-yl]pyrrolo[2,1-f][1,2,4]triazine-7-carboxamide] yielded a half-maximal inhibitory concentration (IC50) of 0.5 nM. On to `Cn1cc(NC(=O)c2ccc3cnc(N[C@@H]4CCCC[C@@H]4N)nn23)c(C(F)(F)F)n1` [Example 2, 2-{[(1R,2S)-2-aminocyclohexyl]amino}-N-[1-methyl-3-(trifluoromethyl)-1H-pyrazol-4-yl]pyrrolo[2,1-f][1,2,4]triazine-7-carboxamide trifluoroacetate], for which the IC50 stood at 2 nM. This IC50 is about 4-fold higher than that of the compound before. Compound `Cn1cc(NC(=O)c2ccc3cnc(N[C@@H]4CCCC[C@@H]4O)nn23)c(C(F)(F)F)n1` [Example 3, 2-{[(1R,2S)-2-hydroxycyclohexyl]amino}-N-[1-methyl-3-(trifluoromethyl)-1H-pyrazol-4-yl]pyrrolo[2,1-f][1,2,4]triazine-7-carboxamide trifluoroacetate] registered an IC50 of 322 nM. The compound `Cn1cc(NC(=O)c2ccc3cnc(N4CCNCC4)nn23)c(C(F)(F)F)n1` [Example 4, N-[1-methyl-3-(trifluoromethyl)-1H-pyrazol-4-yl]-2-piperazin-1-ylpyrrolo[2,1-f][1,2,4]triazine-7-carboxamide trifluoroacetate] had an IC50 of 73 nM. `Cn1cc(NC(=O)c2ccc3cnc(N[C@@H]4CCCNC4)nn23)c(C(F)(F)F)n1` [Example 5, N-[1-methyl-3-(trifluoromethyl)-1H-pyrazol-4-yl]-2-[(3R)-piperidin-3-ylamino]pyrrolo[2,1-f][1,2,4]triazine-7-carboxamide trifluoroacetate] came in with a concentration for half-maximal inhibition (IC50) of 2 nM. `Cn1cc(NC(=O)c2ccc3cnc(N4CCCNCC4)nn23)c(C(F)(F)F)n1` [Example 6, 2-(1,4-diazepan-1-yl)-N-[1-methyl-3-(trifluoromethyl)-1H-pyrazol-4-yl]pyrrolo[2,1-f][1,2,4]triazine-7-carboxamide trifluoroacetate] had a 50% inhibitory concentration (IC50) of 94 nM.

Consider `Cn1cc(NC(=O)c2ccc3cnc(N4CCC[C@@H](N)C4)nn23)c(C(F)(F)F)n1` [Example 7, 2-[(3R)-3-aminopiperidin-1-yl]-N-[1-methyl-3-(trifluoromethyl)-1H-pyrazol-4-yl]pyrrolo[2,1-f][1,2,4]triazine-7-carboxamide trifluoroacetate], for which the IC50 came to 0.9 nM.

As to `Cn1cc(NC(=O)c2ccc3cnc(N[C@@H]4CCCC(F)(F)[C@@H]4N)nn23)c(C(F)(F)F)n1` [Example 8, 2-{[(1R,2R)-2-amino-3,3-difluorocyclohexyl]amino}-N-[1-methyl-3-(trifluoromethyl)-1H-pyrazol-4-yl]pyrrolo[2,1-f][1,2,4]triazine-7-carboxamide trifluoroacetate], half-maximal inhibition (IC50) was put at 276 nM. Compared with the last compound, the IC50 is about 310-fold higher.

`Cn1cc(NC(=O)c2ccc3cnc(N4CCNCC5(CC5)C4)nn23)c(C(F)(F)F)n1` [Example 9, 2-(5,8-diazaspiro[2.6]non-5-yl)-N-[1-methyl-3-(trifluoromethyl)-1H-pyrazol-4-yl]pyrrolo[2,1-f][1,2,4]triazine-7-carboxamide trifluoroacetate] gave an IC50 of 7 nM. In the case of `Cn1cc(NC(=O)c2ccc3cnc(NC4CCCCNC4)nn23)c(C(F)(F)F)n1` (stereo not shown) [Example 10, 2-(azepan-3-ylamino)-N-[1-methyl-3-(trifluoromethyl)-1H-pyrazol-4-yl]pyrrolo[2,1-f][1,2,4]triazine-7-carboxamide trifluoroacetate], the IC50 stood at 4 nM. Turning to `Cn1cc(NC(=O)c2ccc3cnc(N4CCNCC4)nn23)c(C(F)F)n1` [Example 11, N-[3-(difluoromethyl)-1-methyl-1H-pyrazol-4-yl]-2-piperazin-1-ylpyrrolo[2,1-f][1,2,4]triazine-7-carboxamide trifluoroacetate], the half-inhibitory concentration (IC50) turned out to be 3 nM. On to `N#Cc1cscc1NC(=O)c1ccc2cnc(N3CCCNCC3)nn12` [Example 12, N-(4-cyanothiophen-3-yl)-2-(1,4-diazepan-1-yl)pyrrolo[2,1-f][1,2,4]triazine-7-carboxamide trifluoroacetate], for which the IC50 is 365 nM.

On to `N#Cc1cscc1NC(=O)c1ccc2cnc(N[C@@H]3CCCC[C@@H]3N)nn12` [Example 13, 2-{[(1R,2S)-2-aminocyclohexyl]amino}-N-(4-cyanothiophen-3-yl)pyrrolo[2,1-f][1,2,4]triazine-7-carboxamide trifluoroacetate], for which it took 4 nM to reach half-maximal inhibition (IC50). Against the preceding compound, the IC50 is about 91-fold lower.
